Laboratory results from patent US20250368633A1, “AZEPINE FUSED RING COMPOUND AS RIPK1 INHIBITOR AND USE THEREOF” (ARTIVILA BIOPHARMA, priority 2022, published 2025).

What was measured:
RIPK1 kinase [1] = biological target: T1, RIPK1 kinase (Homo sapiens, UniProt Q13546); assay: In vitro RIPK1 kinase activity IC50 assay (ADP-Glo); format: biochemical; details: ATP 10 μM; MBP substrate 100 μg/mL; 8 concentration points; read-out: IC50 range of compounds for RIPK1 kinase activity
T1 construct: purchased Promega VA7593
T1 sequence (Q13546 1-671): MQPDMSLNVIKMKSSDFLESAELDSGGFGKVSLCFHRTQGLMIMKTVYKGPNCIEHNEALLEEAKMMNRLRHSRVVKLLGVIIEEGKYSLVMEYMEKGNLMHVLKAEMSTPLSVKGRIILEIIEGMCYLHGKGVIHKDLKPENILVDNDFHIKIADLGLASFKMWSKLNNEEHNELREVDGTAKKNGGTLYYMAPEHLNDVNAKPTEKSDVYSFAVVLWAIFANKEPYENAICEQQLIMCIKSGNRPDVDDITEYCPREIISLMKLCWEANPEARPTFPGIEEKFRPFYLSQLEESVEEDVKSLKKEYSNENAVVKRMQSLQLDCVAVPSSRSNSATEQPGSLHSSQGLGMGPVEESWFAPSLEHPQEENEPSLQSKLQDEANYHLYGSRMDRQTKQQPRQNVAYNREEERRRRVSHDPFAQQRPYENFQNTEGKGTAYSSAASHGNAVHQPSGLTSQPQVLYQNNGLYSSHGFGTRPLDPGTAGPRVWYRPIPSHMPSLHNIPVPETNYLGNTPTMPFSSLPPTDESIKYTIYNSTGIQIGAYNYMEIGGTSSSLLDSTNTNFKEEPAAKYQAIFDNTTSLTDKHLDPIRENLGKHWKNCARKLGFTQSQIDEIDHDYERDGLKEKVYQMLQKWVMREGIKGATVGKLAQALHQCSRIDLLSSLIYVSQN
Outline: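 Human RIPK1 preincubated 15 min at room temperature with compound (8-point 1:5 dilution series, 1% DMSO in kinase buffer D). Reaction then ran 1 h with 10 μM ATP and 100 μg/mL MBP substrate; ADP measured by ADP-Glo luminescence, IC50 from four-parameter nonlinear fit.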

RIPK1 kinase [2] = biological target: T1, RIPK1 kinase; assay: In vitro RIPK1 kinase activity assay (ADP-Glo), inhibition by compounds at 1 μM; format: biochemical; details: compound 1 μM; ATP 10 μM; MBP substrate 100 μg/mL; read-out: RIPK1 kinase activity inhibition rate range
Outline: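 Read by ADP-Glo chemiluminescence as percent inhibition: RIPK1 kinase, 15-min room-temperature compound preincubation, then 1-h reaction with MBP (100 μg/mL final) and ATP (10 μM final). Enzyme level was set by titration.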

U937 cells = assay: Inhibition rate of compound (1 μM) on necroptosis of U937 cells (TSZ-induced, CellTiter-Glo); format: cell-based; details: TSZ (hTNF-α, SM-164, Z-VAD-FMK) 20 hours
Outline: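 Percent inhibition comes from ATP luminescence (CellTiter-Glo), referenced to wells without TSZ and wells with TSZ alone. The compound was added to U937 cells 15 min ahead of a TNF-α/SM-164/Z-VAD-FMK mix, followed by 20 h culture at 37° C, 5% CO2.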

SMILES	IC50 (RIPK1 kinase [1]) [µM]	inhibition at 1 µM (RIPK1 kinase [2]) [%]	Inhibition rate range of compounds (1 μM) on U937 cell necroptosis (U937 cells)
CN1C(=O)[C@@H](NC(=O)C(=O)NCCc2ccccc2)COc2ccc(C#CCN3CCC(=O)CC3)cc21 [Example 47, (S)—N^1-(5-methyl-4-oxo-7-(3-(4-oxopiperidin-1-yl)prop-1-yn-1-yl)-2,3,4,5-tetrahydrobenzo[b][1,4]oxazepin-3-yl)-N^2-phenethyloxalamide]	< 0.1	≥ 75	A (A: ≥90%)
C[C@@H](NC(=O)C(=O)N[C@H]1COc2ccc(C#CCN3CC[C@H](O)C3)cc2N(C)C1=O)c1ccccc1 [Example 130, N^1-((S)-7-(3-((S)-3-hydroxypyrrolidin-1-yl)prop-1-yn-1-yl)-5-methyl-4-oxo-2,3,4,5-tetrahydrobenzo[b][1,4]oxazepin-3-yl)-N^2-((R)-1-phenylethyl)oxalamide]	< 0.1	≥ 75	A (A: ≥90%)
CN1C(=O)[C@@H](NC(=O)C(=O)NCCc2cccc(F)c2)COc2ccc(C#CCN3CC[C@H](O)C3)cc21 [Example 115, N^1-(3-fluorophenethyl)-N^2-((S)-7-(3-((S)-3-hydroxypyrrolidin-1-yl)prop-1-yn-1-yl)-5-methyl-4-oxo-2,3,4,5-tetrahydrobenzo[b][1,4]oxazepin-3-yl)oxalamide]	< 0.1	50 to 74	A (A: ≥90%)
CN1C(=O)[C@@H](NC(=O)C(=O)NCCc2ccccc2)COc2ccc(C#CC3(O)COC3)cc21 [Example 43, (S)—N^1-(7-((3-hydroxyoxetan-3-yl)ethynyl)-5-methyl-4-oxo-2,3,4,5-tetrahydrobenzo[b][1,4]oxazepin-3-yl)-N^2-phenethyloxalamide]	< 0.1	≥ 75	A (A: ≥90%)
CN1C(=O)[C@@H](NC(=O)C(=O)NCCc2ccccc2)COc2ccc(C#CCNC(=O)CO)cc21 [Example 88, (S)—N^1-(7-(3-(2-hydroxyacetamido)prop-1-yn-1-yl)-5-methyl-4-oxo-2,3,4,5-tetrahydrobenzo[b][1, 4]oxazepin-3-yl)-N^2-phenethyloxalamide]	< 0.1	≥ 75	A (A: ≥90%)

More lines, main results first:

IC50 (RIPK1 kinase [1]) [µM]	inhibition at 1 µM (RIPK1 kinase [2]) [%]	SMILES	Inhibition rate range of compounds (1 μM) on U937 cell necroptosis (U937 cells)
< 0.1	≥ 75	C[C@@H](CNC(=O)C(=O)N[C@H]1COc2ccc(C#CC3(O)COC3)cc2N(C)C1=O)c1ccccc1 [Example 158, N^1-((S)-7-((3-hydroxyoxetan-3-yl)ethynyl)-5-methyl-4-oxo-2,3,4,5-tetrahydrobenzo[b][1,4]oxazepin-3-yl)-N^2-((R)-2-phenylpropyl)oxalamide]	A (A: ≥90%)
< 0.1	≥ 75	C[C@@H](NC(=O)C(=O)N[C@H]1COc2ccc(C#CCN3C(=O)CCC3=O)cc2N(C)C1=O)c1ccccc1 [Example 144, N^1-((S)-7-(3-(2,5-dioxopyrrolidin-1-yl)prop-1-yn-1-yl)-5-methyl-4-oxo-2,3,4,5-tetrahydrobenzo[b][1,4]oxazepin-3-yl)-N^2-((R)-1-phenylethyl)oxalamide]	A (A: ≥90%)
< 0.1	≥ 75	CN1C(=O)[C@@H](NC(=O)C(=O)NCc2cccc(F)c2)COc2ccc(C#CCCO)cc21 [Example 39, (S)—N^1-(3-fluorobenzyl)-N^2-(7-(4-hydroxybut-1-yn-1-yl)-5-methyl-4-oxo-2,3,4,5-tetrahydrobenzo[b][1,4]oxazepin-3-yl)oxalamide]	A (A: ≥90%)
